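How tested: cells in 96-well plates exposed to compound for 48 hours at five concentrations. At the TGI there is no net growth.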

For the first test, the system named is OVCAR-3 ovarian. In words: NCI anticancer screen, dose series, 48 h.
The compound `O=C1CC(c2ccc(Cl)cc2)=Nc2ccccc2N1` displayed a TGI of over 100 µM.

Compound `CCOC(=O)c1ccc(N=Nc2ccc(N(CCC#N)CCC#N)cc2C)cc1` displayed a TGI of over 100 µM.

The subject of a further test is UACC-257 melanoma. The test is described as follows: NCI anticancer screen, dose series, 48 h.
As for `COC(=O)C(C(=O)C(=O)Nc1c(Cl)cc([N+](=O)[O-])cc1Cl)c1csc(-n2nc(C3=CCCCC3)cc2-c2ccccc2)n1` (stereo not drawn), the TGI was over 100 µM.

For `CCCCCCCCOCC(COC(=O)CCCCCCC)OC(=O)CCCCCCC` (stereo not drawn), the TGI is over 100 µM.

With `O=C1CC(c2ccc(Cl)cc2)=Nc2ccccc2N1`, the TGI is over 100 µM.

Consider `CCOC(=O)c1ccc(N=Nc2ccc(N(CCC#N)CCC#N)cc2C)cc1`, for which the TGI is over 100 µM.

The test system of a further test is UO-31 renal. In words: NCI anticancer screen, dose series, 48 h.
`COC(=O)C(C(=O)C(=O)Nc1c(Cl)cc([N+](=O)[O-])cc1Cl)c1csc(-n2nc(C3=CCCCC3)cc2-c2ccccc2)n1` (stereo not drawn) came in with a TGI of over 100 µM.

The compound `CCCCCCCCOCC(COC(=O)CCCCCCC)OC(=O)CCCCCCC` (stereo not drawn) displayed a TGI of over 100 µM.

With `O=C1CC(c2ccc(Cl)cc2)=Nc2ccccc2N1`, the TGI is over 100 µM.

In turn, `CCOC(=O)c1ccc(N=Nc2ccc(N(CCC#N)CCC#N)cc2C)cc1` had a TGI of over 100 µM.

For the next test, the system named is HT29 colon. The test is described as follows: NCI anticancer screen, dose series, 48 h.
For `COC(=O)C(C(=O)C(=O)Nc1c(Cl)cc([N+](=O)[O-])cc1Cl)c1csc(-n2nc(C3=CCCCC3)cc2-c2ccccc2)n1` (stereo not drawn), the TGI was over 100 µM.

As for `CCCCCCCCOCC(COC(=O)CCCCCCC)OC(=O)CCCCCCC` (stereo not drawn), the TGI was over 100 µM.

`O=C1CC(c2ccc(Cl)cc2)=Nc2ccccc2N1` returned a TGI of over 100 µM.

`CCOC(=O)c1ccc(N=Nc2ccc(N(CCC#N)CCC#N)cc2C)cc1` returned a TGI of over 100 µM.

Another test has as its system HCT-116 colon. The test is described as follows: NCI anticancer screen, dose series, 48 h.
`COC(=O)C(C(=O)C(=O)Nc1c(Cl)cc([N+](=O)[O-])cc1Cl)c1csc(-n2nc(C3=CCCCC3)cc2-c2ccccc2)n1` (stereo not drawn) came in with a TGI of over 100 µM.

The compound `CCCCCCCCOCC(COC(=O)CCCCCCC)OC(=O)CCCCCCC` (stereo not drawn) gave a TGI of over 100 µM.

In the case of `O=C1CC(c2ccc(Cl)cc2)=Nc2ccccc2N1`, the TGI came to 59.6 µM.

A further test concerns RXF-631 renal. In words: NCI anticancer screen, dose series, 48 h.
Take `COC(=O)C(C(=O)C(=O)Nc1c(Cl)cc([N+](=O)[O-])cc1Cl)c1csc(-n2nc(C3=CCCCC3)cc2-c2ccccc2)n1` (stereo not drawn): the TGI was over 100 µM.

With `CCCCCCCCOCC(COC(=O)CCCCCCC)OC(=O)CCCCCCC` (stereo not drawn), the TGI was over 100 µM.

As for `O=C1CC(c2ccc(Cl)cc2)=Nc2ccccc2N1`, the TGI was over 100 µM.

The compound `CCOC(=O)c1ccc(N=Nc2ccc(N(CCC#N)CCC#N)cc2C)cc1` yielded a TGI of over 100 µM.

The test system of another test is LOX IMVI melanoma. The test is described as follows: NCI anticancer screen, dose series, 48 h.
The compound `COC(=O)C(C(=O)C(=O)Nc1c(Cl)cc([N+](=O)[O-])cc1Cl)c1csc(-n2nc(C3=CCCCC3)cc2-c2ccccc2)n1` (stereo not drawn) registered a TGI of over 100 µM.

As to `CCCCCCCCOCC(COC(=O)CCCCCCC)OC(=O)CCCCCCC` (stereo not drawn), the TGI was over 100 µM.

On to `O=C1CC(c2ccc(Cl)cc2)=Nc2ccccc2N1`, for which the TGI came to 58.8 µM.

For the compound `CCOC(=O)c1ccc(N=Nc2ccc(N(CCC#N)CCC#N)cc2C)cc1`, the TGI is over 100 µM.

The subject of a further test is HL-60(TB) leukemia. The test is described as follows: NCI anticancer screen, dose series, 48 h.
`COC(=O)C(C(=O)C(=O)Nc1c(Cl)cc([N+](=O)[O-])cc1Cl)c1csc(-n2nc(C3=CCCCC3)cc2-c2ccccc2)n1` (stereo not drawn): the TGI was over 100 µM.

In turn, `CCCCCCCCOCC(COC(=O)CCCCCCC)OC(=O)CCCCCCC` (stereo not drawn) showed a TGI of over 100 µM.

In turn, `O=C1CC(c2ccc(Cl)cc2)=Nc2ccccc2N1` yielded a TGI of 57.6 µM.

Consider `CCOC(=O)c1ccc(N=Nc2ccc(N(CCC#N)CCC#N)cc2C)cc1`, for which the TGI was over 100 µM.

A further test concerns DLD-1 colon. In words: NCI anticancer screen, dose series, 48 h.
`COC(=O)C(C(=O)C(=O)Nc1c(Cl)cc([N+](=O)[O-])cc1Cl)c1csc(-n2nc(C3=CCCCC3)cc2-c2ccccc2)n1` (stereo not drawn) came in with a TGI of over 100 µM.

`CCCCCCCCOCC(COC(=O)CCCCCCC)OC(=O)CCCCCCC` (stereo not drawn) showed a TGI of over 100 µM.

For the compound `O=C1CC(c2ccc(Cl)cc2)=Nc2ccccc2N1`, the TGI was over 100 µM.

As for `CCOC(=O)c1ccc(N=Nc2ccc(N(CCC#N)CCC#N)cc2C)cc1`, the TGI was over 100 µM.

In another test the test system is NCI-H460 lung. In words: NCI anticancer screen, dose series, 48 h.
With `COC(=O)C(C(=O)C(=O)Nc1c(Cl)cc([N+](=O)[O-])cc1Cl)c1csc(-n2nc(C3=CCCCC3)cc2-c2ccccc2)n1` (stereo not drawn), the TGI is over 100 µM.

As to `CCCCCCCCOCC(COC(=O)CCCCCCC)OC(=O)CCCCCCC` (stereo not drawn), the TGI is over 100 µM.

Compound `O=C1CC(c2ccc(Cl)cc2)=Nc2ccccc2N1` gave a TGI of over 100 µM.

The next test has as its system 786-0 renal. In words: NCI anticancer screen, dose series, 48 h.
Consider `COC(=O)C(C(=O)C(=O)Nc1c(Cl)cc([N+](=O)[O-])cc1Cl)c1csc(-n2nc(C3=CCCCC3)cc2-c2ccccc2)n1` (stereo not drawn), for which the TGI is over 100 µM.

On to `CCCCCCCCOCC(COC(=O)CCCCCCC)OC(=O)CCCCCCC` (stereo not drawn), for which the TGI was over 100 µM.

`O=C1CC(c2ccc(Cl)cc2)=Nc2ccccc2N1` came in with a TGI of over 100 µM.

For the compound `CCOC(=O)c1ccc(N=Nc2ccc(N(CCC#N)CCC#N)cc2C)cc1`, the TGI is over 100 µM.

The next test concerns MALME-3M melanoma. In words: NCI anticancer screen, dose series, 48 h.
Take `COC(=O)C(C(=O)C(=O)Nc1c(Cl)cc([N+](=O)[O-])cc1Cl)c1csc(-n2nc(C3=CCCCC3)cc2-c2ccccc2)n1` (stereo not drawn): the TGI is over 100 µM.

`CCCCCCCCOCC(COC(=O)CCCCCCC)OC(=O)CCCCCCC` (stereo not drawn) displayed a TGI of over 100 µM.

`O=C1CC(c2ccc(Cl)cc2)=Nc2ccccc2N1` gave a TGI of over 100 µM.

`CCOC(=O)c1ccc(N=Nc2ccc(N(CCC#N)CCC#N)cc2C)cc1` displayed a TGI of over 100 µM.

A further test deals with SF-268 CNS. The test is described as follows: NCI anticancer screen, dose series, 48 h.
As for `COC(=O)C(C(=O)C(=O)Nc1c(Cl)cc([N+](=O)[O-])cc1Cl)c1csc(-n2nc(C3=CCCCC3)cc2-c2ccccc2)n1` (stereo not drawn), the TGI was over 100 µM.

`CCCCCCCCOCC(COC(=O)CCCCCCC)OC(=O)CCCCCCC` (stereo not drawn): the TGI was over 100 µM.

Turning to `O=C1CC(c2ccc(Cl)cc2)=Nc2ccccc2N1`, the TGI was over 100 µM.

Another test deals with KM20L2 colon. The test is described as follows: NCI anticancer screen, dose series, 48 h.
Compound `COC(=O)C(C(=O)C(=O)Nc1c(Cl)cc([N+](=O)[O-])cc1Cl)c1csc(-n2nc(C3=CCCCC3)cc2-c2ccccc2)n1` (stereo not drawn) gave a TGI of over 100 µM.

Take `CCCCCCCCOCC(COC(=O)CCCCCCC)OC(=O)CCCCCCC` (stereo not drawn): the TGI is over 100 µM.

In turn, `O=C1CC(c2ccc(Cl)cc2)=Nc2ccccc2N1` showed a TGI of over 100 µM.

In a further test the test system is OVCAR-8 ovarian. In words: NCI anticancer screen, dose series, 48 h.
As to `COC(=O)C(C(=O)C(=O)Nc1c(Cl)cc([N+](=O)[O-])cc1Cl)c1csc(-n2nc(C3=CCCCC3)cc2-c2ccccc2)n1` (stereo not drawn), the TGI was over 100 µM.

For the compound `CCCCCCCCOCC(COC(=O)CCCCCCC)OC(=O)CCCCCCC` (stereo not drawn), the TGI was over 100 µM.

Regarding `O=C1CC(c2ccc(Cl)cc2)=Nc2ccccc2N1`, the TGI is 76.6 µM.

(Values after PubChem BioAssay (NCI).)
